For one test, the species on record is Felis catus. The test is described as follows: Percentage inhibition of depressor response in cat was determined. In kind it is functional. Details: concentration or dose not given beside the values.
Test [1] addresses Adrenergic receptor beta (Rattus norvegicus) (UniProt P18090+P10608+P26255). The test is described as follows: In vivo beta-adrenoceptor blocking potency measured by blockade of the isoproterenol tachycardia response in rat. It counts as functional, organism-based.

What is called Inhibition is the drop in the measured response relative to a control, in per cent. The term ED50 denotes the dose that gives a 50% effect, or the effect in half of the subjects.

Each structure is given as a SMILES string.

For the compound `CC(CNC(=O)Cc1ccccc1Cl)NCC(O)c1ccccc1` (stereo unspecified), the Inhibition in the test listed under Felis catus is on record as 19%. For the same compound, the median effective dose (ED50) in test [1] is 0.03 mg/kg. As for `CC(CNC(=O)Cc1ccccc1)NCC(O)c1ccccc1` (stereo unspecified), the Inhibition in the test filed under Felis catus is given as 36%. In test [1], this compound yielded an ED50 of 0.1 mg/kg. The corresponding values for `CC(C)(CNC(=O)Cc1ccccc1)NCC(O)c1ccccc1.O=C(O)/C=C/C(=O)O` (stereo unspecified) are 28% and 0.1 mg/kg.

As for `COc1ccc(CC(=O)NCCNCC(O)c2ccccc2)cc1OC` (stereo unspecified), it took a dose of 7 mg/kg to reach the 50% effect level in test [1] (ED50). The same measure, in the same setting: under `O=C(NCCNCC(O)c1ccccc1)C(F)(F)F` (stereo unspecified) stands 0.1 mg/kg.

In the case of `NC(=O)c1ccccc1OCC(=O)NCCNCC(O)c1ccccc1` (stereo unspecified), it took a dose of 5.2 mg/kg to reach the 50% effect level in test [1] (ED50). In the test filed under Felis catus, `CC(C)C(=O)NCCNCC(O)c1ccccc1` (stereo unspecified) displayed an Inhibition of 27%. In test [1], this compound showed a 50% effective dose (ED50) of 0.7 mg/kg. With `O=C(COc1ccccc1)NCCNCC(O)c1ccccc1` (stereo unspecified), in test [1], the ED50 came out at 1 mg/kg.

For `CCCCNC(=O)NCCNCC(O)c1ccccc1` (stereo unspecified), the Inhibition in the test filed under Felis catus is 54%. The ED50 in test [1] came out at 0.5 mg/kg. The compound `CC(C)C(=O)NCC(C)(C)NCC(O)c1ccccc1` (stereo unspecified) showed an Inhibition in the test filed under Felis catus of 9%. For the same compound, it took a dose of 0.27 mg/kg to reach the 50% effect level in test [1] (ED50). As for `CC(CNC(=O)C1CCCCC1)NCC(O)c1ccccc1` (stereo unspecified), in the test filed under Felis catus, the Inhibition stood at 19%. In test [1], this compound registered an ED50 of 0.11 mg/kg. In turn, `CC(CNCC(O)c1ccccc1)NC(=O)Cc1ccccc1` (stereo unspecified) returned an ED50 in test [1] of 8 mg/kg. In the test listed under Felis catus, `O=C(Cc1ccccc1)NCCNCC(O)c1ccccc1Cl.O=C(O)/C=C/C(=O)O` (stereo unspecified) displayed an Inhibition of 45%. In addition, the 50% effect level in test [1] (ED50) was put at a dose of 0.6 mg/kg. For the compound `CCC(=O)NCCNCC(O)c1ccc(C)cc1` (stereo unspecified), in test [1], the ED50 turned out to be 0.5 mg/kg. Still for that read-out and setting: to `CC(O)c1ccc(OCC(=O)NCCNCC(O)c2ccccc2)cc1` (stereo unspecified) belongs 1.6 mg/kg. Take `O=C(NCCNCC(O)c1ccccc1)Nc1ccccc1` (stereo unspecified): the Inhibition in the test listed under Felis catus is reported as 0%. Also, in test [1], the median effective dose (ED50) came to 2.9 mg/kg. The corresponding values for `O=C(Cc1ccccc1)NCCNCC(O)c1ccccc1` (stereo unspecified) are 6% and 0.38 mg/kg. As to `CC(=O)Nc1ccc(OCC(O)CNC(C)C)cc1` (stereo unspecified) [PRACTOLOL], the Inhibition in the test listed under Felis catus was 8%. As for `CCC(=O)NCCNCC(O)c1ccccc1` (stereo unspecified), the Inhibition in the test listed under Felis catus came out at 46%. In test [1], this compound gave an ED50 of 0.07 mg/kg. Take `CC(C)C(=O)NCCNCC(O)c1ccc(Cl)cc1Cl` (stereo unspecified): the ED50 in test [1] was determined as 0.75 mg/kg. As to `CCCC(=O)NCCNCC(O)c1ccccc1` (stereo unspecified), the Inhibition in the test listed under Felis catus turned out to be 0%. Further, in test [1], the ED50 came to 0.45 mg/kg. For `CC(C)CC(=O)NCCNCC(O)c1ccccc1` (stereo unspecified) the same measures were 25% and 0.72 mg/kg. For `COCC(=O)NCCNCC(O)c1ccccc1` (stereo unspecified) the same measures were 44% and 0.4 mg/kg. The corresponding values for `O=C(NCCNCC(O)c1ccccc1)C1CCCC1` (stereo unspecified) are 8% and 0.42 mg/kg. On to `CC(C)C(=O)NCCNCC(O)c1ccc([N+](=O)[O-])cc1` (stereo unspecified), for which the Inhibition in the test listed under Felis catus was determined as 0%. In test [1], this compound showed an ED50 of 10 mg/kg. For `CC(C)C(=O)NCCNCC(O)c1ccc(N)cc1` (stereo unspecified) the same measures were 69% and 0.6 mg/kg.

In turn, `CC(C)C(=O)NCCNCC(O)c1ccc(Br)cc1` (stereo unspecified) had a median effective dose (ED50) in test [1] of 1.6 mg/kg. With `CC(=O)NCCNCC(O)c1ccccc1` (stereo unspecified), the Inhibition in the test filed under Felis catus is 50%. It took a dose of 0.08 mg/kg to reach the 50% effect level in test [1] (ED50). Take `N#Cc1ccc(OCC(=O)NCCNCC(O)c2ccccc2)cc1` (stereo unspecified): it took a dose of 0.7 mg/kg to reach the 50% effect level in test [1] (ED50). As to `Cl.O=C(NCCNCC(O)c1ccccc1)C1CCCCC1` (stereo unspecified), in the test listed under Felis catus, the Inhibition worked out at 0%. This compound registered an ED50 in test [1] of 0.16 mg/kg. In test [1], `CC(=O)Nc1ccc(CC(=O)NCCNCC(O)c2ccccc2)cc1` (stereo unspecified) registered an ED50 of 1.2 mg/kg.

In turn, `CCC(C)NCC(O)c1ccc2c(c1)CCCC2.Cl` (stereo unspecified) displayed an Inhibition in the test listed under Felis catus of 47%. Turning to `O=C(COc1ccc(Cl)cc1)NCCNCC(O)c1ccccc1` (stereo unspecified), the Inhibition in the test filed under Felis catus is on record as 36%. The 50% effect level in test [1] (ED50) was put at a dose of 2.5 mg/kg. As to `C=CCNC(=O)NCCNCC(O)c1ccccc1` (stereo unspecified), the Inhibition in the test listed under Felis catus came out at 0%. Moreover, the 50% effective dose (ED50) in test [1] worked out at 0.26 mg/kg. Turning to `COc1ccc(CC(=O)NCCNCC(O)c2ccccc2)cc1` (stereo unspecified), the Inhibition in the test filed under Felis catus was 24%. Further, in test [1], the 50% effect level (ED50) was put at a dose of 0.32 mg/kg. For the compound `CC(C)C(=O)NCCNCC(O)c1ccc(NS(C)(=O)=O)cc1` (stereo unspecified), in test [1], the ED50 was 5.2 mg/kg. In turn, `CCOC(=O)NCCNCC(O)c1ccccc1` (stereo unspecified) registered a 50% effective dose (ED50) in test [1] of 2.8 mg/kg. The compound `O=[N+]([O-])c1ccccc1S(=O)(=O)NCCNCC(O)c1ccccc1` (stereo unspecified) gave an Inhibition in the test listed under Felis catus of 23%. In test [1], the ED50 worked out at 2.5 mg/kg.

As to `COc1ccc(C(O)CNCCNC(=O)C(C)C)cc1` (stereo unspecified), the Inhibition in the test filed under Felis catus is given as 0%. Further, in test [1], the ED50 stood at 0.3 mg/kg. In the case of `O=C(NCCNCC(O)c1ccccc1)c1ccccc1` (stereo unspecified), it took a dose of 10 mg/kg to reach the 50% effect level in test [1] (ED50). `O=S(=O)(Cc1ccccc1)NCCNCC(O)c1ccccc1` (stereo unspecified) gave an Inhibition in the test filed under Felis catus of 0%. The ED50 in test [1] was 2 mg/kg. The corresponding values for `O=C(NCCNCC(O)c1ccccc1)c1ccc(O)cc1` (stereo unspecified) are 10% and 9 mg/kg. For the compound `O=C(CO)NCCNCC(O)c1ccccc1` (stereo unspecified), the median effective dose (ED50) in test [1] came to 0.3 mg/kg.

`CCCCCC(=O)NCCNCC(O)c1ccccc1` (stereo unspecified) had an Inhibition in the test filed under Felis catus of 8%. Also, the 50% effect level in test [1] (ED50) was put at a dose of 1.4 mg/kg. As for `C=CCOc1ccccc1OCC(=O)NCCNCC(O)c1ccccc1` (stereo unspecified), the ED50 in test [1] stood at 5.8 mg/kg. In the test filed under Felis catus, `O=C(Cc1ccc(Cl)cc1)NCCNCC(O)c1ccccc1` (stereo unspecified) displayed an Inhibition of 3%. The compound further had a 50% effective dose (ED50) in test [1] of 0.7 mg/kg. Regarding `CC(C)NCC(O)c1ccc(NS(C)(=O)=O)cc1` (stereo unspecified) [SOTALOL], the Inhibition in the test listed under Felis catus amounted to 85%. As for `CC(=O)c1ccc(OCC(=O)NCCNCC(O)c2ccccc2)cc1` (stereo unspecified), the median effective dose (ED50) in test [1] is 0.6 mg/kg. The compound `O=S(=O)(NCCNCC(O)c1ccccc1)c1ccccc1` (stereo unspecified) came in with an Inhibition in the test filed under Felis catus of 27%. It took a dose of 1 mg/kg to reach the 50% effect level in test [1] (ED50). As to `Nc1ccc(CC(=O)NCCNCC(O)c2ccccc2)cc1` (stereo unspecified), the 50% effective dose (ED50) in test [1] is 2.5 mg/kg. As to `CCCS(=O)(=O)NCCNCC(O)c1ccccc1` (stereo unspecified), the Inhibition in the test filed under Felis catus turned out to be 0%. The 50% effect level in test [1] (ED50) was put at a dose of 0.5 mg/kg.

The values above are taken from ChEMBL document CHEMBL1121381, “Beta-adrenergic blocking agents. 19. 1-Phenyl-2-[[(substituted-amido)alkyl]amino]ethanols” (1980).
